Converted amounts (≈) assume the structure as drawn. Some results are limits rather than exact numbers.

The test relates to Trichomonas vaginalis. The test can be described thus: Antitrichomonal activity against Trichomonas vaginalis after 48 hrs by invert microscope analysis. Type of test: functional.

What is called MIC is the least concentration at which growth counts as inhibited. Higher therefore signals a need for much substance. For `O=C1/C(=C/c2ccc(F)cc2)C[C@@]2(O)[C@H]3Cc4ccc(O)c5c4[C@@]2(CCN3CC2CC2)[C@H]1O5`, the lowest concentration to inhibit growth (MIC) was 40 µM (≈ 17.9 µg/mL).

`COc1ccc(/C=C2\C[C@@]3(O)[C@H]4Cc5ccc(O)c6c5[C@@]3(CCN4CC3CC3)[C@@H](O6)C2=O)cc1` registered an MIC of 20 µM (≈ 9.19 µg/mL). The figure for `CC1(C)SSC(C)(C)[C@@H](NC(=O)[C@@H](N)Cc2ccc(O)cc2)C(=O)NCC(=O)N[C@@H](Cc2ccccc2)C(=O)N[C@H]1C(=O)O` is above 320 µM. Consider `CN(C)c1ccc(/C=C2\C[C@@]3(O)[C@H]4Cc5ccc(O)c6c5[C@@]3(CCN4CC3CC3)[C@@H](O6)C2=O)cc1`, for which the MIC is 20 µM (≈ 9.45 µg/mL). `O=C1/C(=C/c2ccccc2)C[C@@]2(O)[C@H]3Cc4ccc(O)c5c4[C@@]2(CCN3CC2CC2)[C@H]1O5` [BNTX]: the MIC turned out to be 40 µM (≈ 17.2 µg/mL).

Consider `CC(C)[C@H](NC(=O)[C@H](CCC(=O)O)NC(=O)[C@H](Cc1ccccc1)NC(=O)[C@@H](C)NC(=O)[C@@H](N)Cc1ccc(O)cc1)C(=O)N[C@H](C(=O)NCC(N)=O)C(C)C` [DELTORPHIN II], for which the MIC is above 320 µM.

Take `Cc1ncc([N+](=O)[O-])n1CCO` [METRONIDAZOLE]: inhibition of growth (MIC) required 5 µM (≈ 0.856 µg/mL).

`Oc1ccc2c3c1O[C@H]1c4[nH]c5ccccc5c4C[C@@]4(O)[C@@H](C2)N(CC2CC2)CC[C@]314` [NALTRINDOLE] displayed an MIC of 80 µM (≈ 33.2 µg/mL). Consider `C=CCN1C[C@H](C)N([C@H](c2ccc(C(=O)N(CC)CC)cc2)c2cccc(OC)c2)C[C@H]1C` [SNC-80], for which the minimal inhibitory concentration (MIC) was above 320 µM.

Source of the values: ChEMBL document CHEMBL3632589, “Investigation of 7-benzylidenenaltrexone derivatives as a novel structural antitrichomonal lead compound” (2015).
